Results on four compounds are retold here after PubChem BioAssay AID1259407 (Chemical Carcinogenesis Research Information System (CCRIS), 2018).

Structures are written as SMILES. The source made the active and inactive calls. No rule for the calls is given here.

The data set has as its system CCRIS mutagenicity, Ames/micronucleus/aberration tests. The data set can be described thus: CCRIS mutagenicity studies. The text has this: The CCRIS database contains chemical records with carcinogenicity, mutagenicity, tumor promotion, and tumor inhibition test results. It was developed by the National Cancer Institute (NCI). Data are derived from studies cited in primary journals, current awareness tools, NCI reports, and other sources. Test results have been reviewed by experts in carcinogenesis and mutagenesis.
CCRIS provides historical information from the years 1985 - 2011. It is no longer updated.
This is an archive assay for CCRIS mutagenicity studies.

Where [1] appears, read: Test System: AMES SALMONELLA TYPHIMURIUM, Strain/Indicator: TA100, Metabolic Activation: NONE, Method: STANDARD PLATE.
Setting [2] is: Test System: AMES SALMONELLA TYPHIMURIUM, Strain/Indicator: TA1535, Metabolic Activation: NONE, Method: STANDARD PLATE.
Where [3] appears, read: Test System: MOUSE LYMPHOMA, Strain/Indicator: L5178Y (TK+/TK-), Metabolic Activation: NONE, Method: SUSPENSION/PLATE.
Where [4] appears, read: Test System: MOUSE LYMPHOMA, Strain/Indicator: L5178Y (TK+/TK-), Metabolic Activation: RAT, LIVER, S-9, AROCLOR 1254, Method: SUSPENSION/PLATE.
Where [5] appears, read: Test System: AMES SALMONELLA TYPHIMURIUM, Strain/Indicator: TA98, Metabolic Activation: NONE, Method: STANDARD PLATE.
The mark [6] stands for this setting: Test System: AMES SALMONELLA TYPHIMURIUM, Strain/Indicator: TA1537, Metabolic Activation: NONE, Method: STANDARD PLATE.
The mark [7] stands for this setting: Test System: AMES SALMONELLA TYPHIMURIUM, Strain/Indicator: TA1538, Metabolic Activation: NONE, Method: STANDARD PLATE.

Take `CN(C)C(=O)Cl`: the mutagenic call reads like this: under setting [1], “active; positive”; under setting [2], “active; positive”; (Test System: E. COLI, Strain/Indicator: WP2 UVRA, Metabolic Activation: HAMSTER, LIVER, S-9, AROCLOR 1254, Method: PREINCUBATION) “inactive; negative”; (Test System: E. COLI, Strain/Indicator: WP2 UVRA, Metabolic Activation: HAMSTER, LIVER, S-9, AROCLOR 1254, Method: STANDARD PLATE) “inactive; negative”; (Test System: E. COLI, Strain/Indicator: WP2 UVRA, Metabolic Activation: HAMSTER, LIVER, S-9, Method: STANDARD PLATE) “inactive; negative”; (Test System: E. COLI, Strain/Indicator: WP2 UVRA, Metabolic Activation: MOUSE, LIVER, S-9, AROCLOR 1254, Method: PREINCUBATION) “inactive; negative”. Also, the mutagenic call runs as follows: (Test System: E. COLI, Strain/Indicator: WP2 UVRA, Metabolic Activation: MOUSE, LIVER, S-9, AROCLOR 1254, Method: STANDARD PLATE) “inactive; negative”; (Test System: E. COLI, Strain/Indicator: WP2 UVRA, Metabolic Activation: MOUSE, LIVER, S-9, Method: PREINCUBATION) “inactive; negative”; (Test System: E. COLI, Strain/Indicator: WP2 UVRA, Metabolic Activation: MOUSE, LIVER, S-9, Method: STANDARD PLATE) “inactive; negative”; (Test System: E. COLI, Strain/Indicator: WP2 UVRA, Metabolic Activation: NONE, Method: STANDARD PLATE) “inactive; negative”; (Test System: E. COLI, Strain/Indicator: WP2 UVRA, Metabolic Activation: RAT, LIVER, S-9, AROCLOR 1254, Method: STANDARD PLATE) “inactive; negative”; (Test System: E. COLI, Strain/Indicator: WP2 UVRA, Metabolic Activation: RAT, LIVER, S-9, Method: STANDARD PLATE) “inactive; negative”. Moreover, the mutagenic call under setting [3] was “active; positive” and the mutagenic call under setting [4] was “active; positive”.
As to `CC1=Nc2ccccc2C1(C)C`, the mutagenic call is “inactive; negative” (Test System: AMES SALMONELLA TYPHIMURIUM, Strain/Indicator: TA98, Metabolic Activation: HAMSTER, LIVER, S-9, AROCLOR 1254, Method: STANDARD PLATE); “inactive; negative” under setting [5]; “inactive; negative” (Test System: AMES SALMONELLA TYPHIMURIUM, Strain/Indicator: TA98, Metabolic Activation: RAT, LIVER, S-9, AROCLOR 1254, Method: STANDARD PLATE); “inactive; negative” (Test System: AMES SALMONELLA TYPHIMURIUM, Strain/Indicator: TA100, Metabolic Activation: HAMSTER, LIVER, S-9, AROCLOR 1254, Method: STANDARD PLATE); “inactive; negative” under setting [1]; “inactive; negative” (Test System: AMES SALMONELLA TYPHIMURIUM, Strain/Indicator: TA100, Metabolic Activation: RAT, LIVER, S-9, AROCLOR 1254, Method: STANDARD PLATE). The mutagenic call runs as follows: (Test System: AMES SALMONELLA TYPHIMURIUM, Strain/Indicator: TA1535, Metabolic Activation: HAMSTER, LIVER, S-9, AROCLOR 1254, Method: STANDARD PLATE) “inactive; negative”; under setting [2], “inactive; negative”; (Test System: AMES SALMONELLA TYPHIMURIUM, Strain/Indicator: TA1535, Metabolic Activation: RAT, LIVER, S-9, AROCLOR 1254, Method: STANDARD PLATE) “inactive; negative”; (Test System: AMES SALMONELLA TYPHIMURIUM, Strain/Indicator: TA1537, Metabolic Activation: HAMSTER, LIVER, S-9, AROCLOR 1254, Method: STANDARD PLATE) “inactive; negative”; under setting [6], “inactive; negative”; (Test System: AMES SALMONELLA TYPHIMURIUM, Strain/Indicator: TA1537, Metabolic Activation: RAT, LIVER, S-9, AROCLOR 1254, Method: STANDARD PLATE) “inactive; negative”. For the same compound, the mutagenic call reads like this: (Test System: AMES SALMONELLA TYPHIMURIUM, Strain/Indicator: TA1538, Metabolic Activation: HAMSTER, LIVER, S-9, AROCLOR 1254, Method: STANDARD PLATE) “inactive; negative”; under setting [7], “inactive; negative”; (Test System: AMES SALMONELLA TYPHIMURIUM, Strain/Indicator: TA1538, Metabolic Activation: RAT, LIVER, S-9, AROCLOR 1254, Method: STANDARD PLATE) “inactive; negative”; under setting [3], “inactive; positive. reevaluation of results: negative”; under setting [4], “active; positive. reevaluation of results: inconclusive”.
In the case of `C=C.CC(N)c1ccccc1.[Cl-].[Cl-].[Pt+2]` (configuration not stated), the mutagenic call reads like this: (Test System: AMES SALMONELLA TYPHIMURIUM, Strain/Indicator: TA92, Metabolic Activation: NONE, Method: STANDARD PLATE) “inactive; negative”; under setting [5], “inactive; negative”; under setting [1], “inactive; negative”; (Test System: AMES SALMONELLA TYPHIMURIUM, Strain/Indicator: TA2410, Metabolic Activation: NONE, Method: STANDARD PLATE) “inactive; negative”.
Consider `CN(C)CCCNc1c2ccccc2nc2cccc([N+](=O)[O-])c12`, for which the mutagenic call reads like this: (Test System: AMES SALMONELLA TYPHIMURIUM, Strain/Indicator: TA98(1,8-DNP6), Metabolic Activation: NONE, Method: STANDARD PLATE) “active; positive”; (Test System: AMES SALMONELLA TYPHIMURIUM, Strain/Indicator: TA98(1,8-DNP6), Metabolic Activation: RAT, LIVER, S-9, Method: STANDARD PLATE) “active; positive”; (Test System: AMES SALMONELLA TYPHIMURIUM, Strain/Indicator: TA98(NR), Metabolic Activation: NONE, Method: STANDARD PLATE) “active; positive”; (Test System: AMES SALMONELLA TYPHIMURIUM, Strain/Indicator: TA98(NR), Metabolic Activation: RAT, LIVER, S-9, Method: STANDARD PLATE) “active; positive”; under setting [5], “active; positive”; (Test System: AMES SALMONELLA TYPHIMURIUM, Strain/Indicator: TA98, Metabolic Activation: RAT, LIVER, S-9, Method: STANDARD PLATE) “active; positive”. The mutagenic call reads like this: under setting [1], “active; positive”; under setting [2], “inactive; negative”; under setting [6], “active; positive”; (Test System: AMES SALMONELLA TYPHIMURIUM, Strain/Indicator: TA1537 PKM101, Metabolic Activation: NONE, Method: STANDARD PLATE) “active; positive”; under setting [7], “active; positive”; (Test System: CHINESE HAMSTER V-79, Strain/Indicator: V-79/6-THIOGUANINE, Metabolic Activation: NONE, Method: STANDARD PLATE) “active; positive”. In addition, the mutagenic call (Test System: CHINESE HAMSTER V-79, Strain/Indicator: V-79/OUABAIN, Metabolic Activation: NONE, Method: STANDARD PLATE) is “active; positive”; the mutagenic call (Test System: Escherichia coli, Strain/Indicator: CC107 (G6 to G7 frameshifts), Metabolic Activation: None, Method: Modified preincubation) is “active; positive”; the mutagenic call (Test System: Escherichia coli, Strain/Indicator: CC108 (G6 to G5 frameshifts), Metabolic Activation: None) was “active; positive”; the mutagenic call (Test System: Escherichia coli, Strain/Indicator: CC109 (CG5 to CG4 frameshifts), Metabolic Activation: None, Method: Modified preincubation) was “active; positive”; the mutagenic call (Test System: Escherichia coli, Strain/Indicator: CC111 (A7 to A6 frameshifts), Metabolic Activation: None, Method: Modified preincubation) is “inactive; negative”.
